Results: patent publication US12077503B2, “Substituted cyclic amides and their use as herbicides” (FMC CORPORATION, priority 2015, dated 2024)

What was measured:
Format in all cases: in vivo
[1] = tested on: ducksalad (Heteranthera limosa); test: Test B flooded paddy test; settings: Flood, 0 to 100 scale where 0 is no effect and 100 is complete control, 13 to 15 d
In short: (§1)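 Visual ratings (0 none to 100 complete control) are relative to untreated plants, taken 13–15 d after treatment in a greenhouse. Test material went straight into floodwater standing 3 cm above the soil, kept constant, on plants at the 2-leaf stage.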

rice (Oryra sativa) = test: Test B flooded paddy test; settings: Flood, 0 to 100 scale where 0 is no effect and 100 is complete control, 13 to 15 d
In short: as §1

[2] = tested on: barnyardgrass (Echinochloa crus-galli); test: Test B flooded paddy test; settings: Flood, 0 to 100 scale where 0 is no effect and 100 is complete control, 13 to 15 d
In short: as §1

[3] = tested on: sedge, umbrella (small-flower umbrella sedge, Cyperus difformis); test: Test B flooded paddy test; settings: Flood, 0 to 100 scale where 0 is no effect and 100 is complete control, 13 to 15 d
In short: as §1

Kochia (Kochia scoparia) [4] = test: Test A postemergence
In short: (§2)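 Ratings of 0 (no effect) to 100 (complete control) come from visual comparison with untreated controls roughly 10 d after treatment. Test chemicals, formulated in a non-phytotoxic solvent mixture with surfactant, were applied either as a preemergence directed soil spray on seeded soil or postemergence to one- to two-leaf plants 2 to 10 cm tall.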

[5] = tested on: Galium (catchweed bedstraw, Galium aparine); test: Test A postemergence
In short: as §2

[6] = tested on: ryegrass, Italian (Italian ryegrass, Lolium multiflorum); test: Test A postemergence
In short: as §2

[7] = tested on: blackgrass (Alopecurus myosuroides); test: Test A postemergence
In short: as §2

[8] = tested on: barnyardgrass (Echinochloa crus-galli); test: Test A postemergence
In short: as §2

[9] = tested on: wheat (Triticum aestivum); test: Test A postemergence
In short: as §2

[10] = tested on: giant foxtail (Setaria faberii); test: Test A postemergence
In short: as §2

[11] = tested on: ragweed (common ragweed, Ambrosia elatior); test: Test A postemergence
In short: as §2

[12] = tested on: pigweed (Amaranthus retroflexus); test: Test A postemergence
In short: as §2

corn (Zea mays) = test: Test A postemergence
In short: as §2

Kochia (Kochia scoparia) [13] = test: Test A preemergence; settings: for Plant response rating, Kochia: preemergence
In short: as §2

[14] = tested on: ryegrass, Italian (Italian ryegrass, Lolium multiflorum); test: Test A preemergence; settings: for Plant response rating, Ryegrass, Italian: preemergence
In short: as §2

[15] = tested on: barnyardgrass (Echinochloa crus-galli); test: Test A preemergence; settings: for Plant response rating, Barnyardgrass: preemergence
In short: as §2

[16] = tested on: giant foxtail (Setaria faberii); test: Test A preemergence; settings: for Plant response rating, Foxtail, Giant: preemergence
In short: as §2

[17] = tested on: ragweed (common ragweed, Ambrosia elatior); test: Test A preemergence; settings: for Plant response rating, Ragweed: preemergence
In short: as §2

[18] = tested on: pigweed (Amaranthus retroflexus); test: Test A preemergence; settings: for Plant response rating, Pigweed: preemergence
[19] = 125 g ai/ha, postemergence, visual injury after approximately 10 d, 0 to 100 scale (0 no effect, 100 complete control)
[20] = 500 g ai/ha, postemergence, visual injury, 0 to 100 scale (0 no effect, 100 complete control), approx. 10 d
[21] = 125 g ai/ha, visual rating after approx. 10 d, 0 to 100 scale where 0 is no effect and 100 is complete control
[22] = 500 g ai/ha, 0 to 100 scale, 0 = no effect, 100 = complete control
[23] = 500 g ai/ha, postemergence, 0 to 100 scale, 0 no effect, 100 complete control
[24] = Postemergence, 125 g ai/ha, visual injury, 0 to 100 scale (0 no effect, 100 complete control), approx. 10 d
[25] = 125 g ai/ha, 0 to 100 scale (0 no effect, 100 complete control)
[26] = Preemergence, 500 g ai/ha, 0 is no effect, 100 is complete control

## CC(=O)c1ccccc1NC(=O)C1C(=O)NCC1c1cccc(C(F)(F)F)c1 (racemic) [Compound 706]
[1]; 500 g ai/ha
  Plant response rating, Ducksalad: 0
Rice (Oryra sativa); 500 g ai/ha
  Plant response rating, Rice: 15
[2]; 500 g ai/ha
  Plant response rating, Barnyardgrass: 0
[3]; 500 g ai/ha
  Plant response rating, Sedge, Umbrella: 0
Kochia (Kochia scoparia) [4]; [19]
  Plant response rating, Kochia: 0
Kochia (Kochia scoparia) [4]; [20]
  Plant response rating, Kochia: 0
[5]; [19]
  Plant response rating, Galium: 0
[5]; [20]
  Plant response rating, Galium: 0
[6]; [19]
  Plant response rating, Ryegrass, Italian: 0
[6]; [20]
  Plant response rating, Ryegrass, Italian: 0
[7]; [19]
  Plant response rating, Blackgrass: 0
[7]; [20]
  Plant response rating, Blackgrass: 0
[8]; [19]
  Plant response rating, Barnyardgrass: 0
[8]; [20]
  Plant response rating, Barnyardgrass: 50
[9]; [19]
  Plant response rating, Wheat: 0
[9]; [20]
  Plant response rating, Wheat: 0
[10]; [19]
  Plant response rating, Foxtail, Giant: 0
[10]; [20]
  Plant response rating, Foxtail, Giant: 30
[11]; [19]
  Plant response rating, Ragweed: 0
[11]; [20]
  Plant response rating, Ragweed: 0
[12]; [19]
  Plant response rating, Pigweed: 0
[12]; [20]
  Plant response rating, Pigweed: 0
Corn (Zea mays); [19]
  Plant response rating, Corn: 0
Corn (Zea mays); [20]
  Plant response rating, Corn: 0
Kochia (Kochia scoparia) [13]; [21]
  Plant response rating, Kochia: 0
Kochia (Kochia scoparia) [13]; [22]
  Plant response rating, Kochia: 0
[14]; [21]
  Plant response rating, Ryegrass, Italian: 0
[14]; [22]
  Plant response rating, Ryegrass, Italian: 0
[15]; [21]
  Plant response rating, Barnyardgrass: 0
[15]; [22]
  Plant response rating, Barnyardgrass: 70
[16]; [21]
  Plant response rating, Foxtail, Giant: 0
[16]; [22]
  Plant response rating, Foxtail, Giant: 80
[17]; [21]
  Plant response rating, Ragweed: 0
[17]; [22]
  Plant response rating, Ragweed: 0
[18]; [21]
  Plant response rating, Pigweed: 0
[18]; [22]
  Plant response rating, Pigweed: 0

## Cc1cccc(C2CNC(=O)C2C(=O)Nc2cccc(F)c2F)c1 (racemic) [Compound 373]
[1]; 250 g ai/ha
  Plant response rating, Ducksalad: 100
Rice (Oryra sativa); 250 g ai/ha
  Plant response rating, Rice: 20
[2]; 250 g ai/ha
  Plant response rating, Barnyardgrass: 60
[3]; 250 g ai/ha
  Plant response rating, Sedge, Umbrella: 0
Kochia (Kochia scoparia) [4]; [23]
  Plant response rating, Kochia: 40
Kochia (Kochia scoparia) [4]; [24]
  Plant response rating, Kochia: 0
[5]; [23]
  Plant response rating, Galium: 30
[5]; [24]
  Plant response rating, Galium: 30
[6]; [23]
  Plant response rating, Ryegrass, Italian: 20
[6]; [24]
  Plant response rating, Ryegrass, Italian: 30
[7]; [23]
  Plant response rating, Blackgrass: 40
[7]; [24]
  Plant response rating, Blackgrass: 20
[8]; [23]
  Plant response rating, Barnyardgrass: 80
[8]; [24]
  Plant response rating, Barnyardgrass: 80
[9]; [23]
  Plant response rating, Wheat: 70
[9]; [24]
  Plant response rating, Wheat: 20
[10]; [23]
  Plant response rating, Foxtail, Giant: 70
[10]; [24]
  Plant response rating, Foxtail, Giant: 40
[11]; [23]
  Plant response rating, Ragweed: 0
[11]; [24]
  Plant response rating, Ragweed: 0
[12]; [23]
  Plant response rating, Pigweed: 30
[12]; [24]
  Plant response rating, Pigweed: 20
Corn (Zea mays); [23]
  Plant response rating, Corn: 50
Corn (Zea mays); [24]
  Plant response rating, Corn: 20
Kochia (Kochia scoparia) [13]; [25]
  Plant response rating, Kochia: 0
Kochia (Kochia scoparia) [13]; [26]
  Kochia plant response rating (0 to 100 scale): 30
[14]; [25]
  Plant response rating, Ryegrass, Italian: 30
[14]; [26]
  Ryegrass, Italian plant response rating (0 to 100 scale): 40
[15]; [25]
  Plant response rating, Barnyardgrass: 90
[15]; [26]
  Barnyardgrass plant response rating (0 to 100 scale): 90
[16]; [25]
  Plant response rating, Foxtail, Giant: 80
[16]; [26]
  Foxtail, Giant plant response rating (0 to 100 scale): 90
[17]; [25]
  Plant response rating, Ragweed: 0
[17]; [26]
  Ragweed plant response rating (0 to 100 scale): 30
[18]; [25]
  Plant response rating, Pigweed: 0
[18]; [26]
  Pigweed plant response rating (0 to 100 scale): 20
